The values that follow are results of earlier work, collected in US9555029B2 (HIKMA PHARMACEUTICALS, priority 2013, dated 2017).

In one data set the target is P-gp (Homo sapiens, UniProt P08183). The following applies: FDA definition; cited from earlier work.
The target in the next data set is CYP3A4 (Homo sapiens, UniProt P08684). The following applies: FDA definition of relative strength; cited from earlier work.
Chain of CYP3A4 (P08684 whole entry): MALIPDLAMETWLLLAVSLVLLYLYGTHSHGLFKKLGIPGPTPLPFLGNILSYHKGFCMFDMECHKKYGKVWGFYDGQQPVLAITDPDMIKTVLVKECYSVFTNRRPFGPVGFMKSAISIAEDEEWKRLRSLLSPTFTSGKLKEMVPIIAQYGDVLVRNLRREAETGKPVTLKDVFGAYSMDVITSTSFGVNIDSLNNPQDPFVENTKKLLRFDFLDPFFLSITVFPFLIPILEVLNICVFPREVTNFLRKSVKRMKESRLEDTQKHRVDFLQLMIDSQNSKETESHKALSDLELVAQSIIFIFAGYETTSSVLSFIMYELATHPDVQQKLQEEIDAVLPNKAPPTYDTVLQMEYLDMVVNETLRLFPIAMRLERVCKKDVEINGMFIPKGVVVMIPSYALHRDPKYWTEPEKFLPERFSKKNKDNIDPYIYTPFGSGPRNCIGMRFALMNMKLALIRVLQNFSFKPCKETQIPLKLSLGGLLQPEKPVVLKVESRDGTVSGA

Chain of P-gp (P08183 whole entry): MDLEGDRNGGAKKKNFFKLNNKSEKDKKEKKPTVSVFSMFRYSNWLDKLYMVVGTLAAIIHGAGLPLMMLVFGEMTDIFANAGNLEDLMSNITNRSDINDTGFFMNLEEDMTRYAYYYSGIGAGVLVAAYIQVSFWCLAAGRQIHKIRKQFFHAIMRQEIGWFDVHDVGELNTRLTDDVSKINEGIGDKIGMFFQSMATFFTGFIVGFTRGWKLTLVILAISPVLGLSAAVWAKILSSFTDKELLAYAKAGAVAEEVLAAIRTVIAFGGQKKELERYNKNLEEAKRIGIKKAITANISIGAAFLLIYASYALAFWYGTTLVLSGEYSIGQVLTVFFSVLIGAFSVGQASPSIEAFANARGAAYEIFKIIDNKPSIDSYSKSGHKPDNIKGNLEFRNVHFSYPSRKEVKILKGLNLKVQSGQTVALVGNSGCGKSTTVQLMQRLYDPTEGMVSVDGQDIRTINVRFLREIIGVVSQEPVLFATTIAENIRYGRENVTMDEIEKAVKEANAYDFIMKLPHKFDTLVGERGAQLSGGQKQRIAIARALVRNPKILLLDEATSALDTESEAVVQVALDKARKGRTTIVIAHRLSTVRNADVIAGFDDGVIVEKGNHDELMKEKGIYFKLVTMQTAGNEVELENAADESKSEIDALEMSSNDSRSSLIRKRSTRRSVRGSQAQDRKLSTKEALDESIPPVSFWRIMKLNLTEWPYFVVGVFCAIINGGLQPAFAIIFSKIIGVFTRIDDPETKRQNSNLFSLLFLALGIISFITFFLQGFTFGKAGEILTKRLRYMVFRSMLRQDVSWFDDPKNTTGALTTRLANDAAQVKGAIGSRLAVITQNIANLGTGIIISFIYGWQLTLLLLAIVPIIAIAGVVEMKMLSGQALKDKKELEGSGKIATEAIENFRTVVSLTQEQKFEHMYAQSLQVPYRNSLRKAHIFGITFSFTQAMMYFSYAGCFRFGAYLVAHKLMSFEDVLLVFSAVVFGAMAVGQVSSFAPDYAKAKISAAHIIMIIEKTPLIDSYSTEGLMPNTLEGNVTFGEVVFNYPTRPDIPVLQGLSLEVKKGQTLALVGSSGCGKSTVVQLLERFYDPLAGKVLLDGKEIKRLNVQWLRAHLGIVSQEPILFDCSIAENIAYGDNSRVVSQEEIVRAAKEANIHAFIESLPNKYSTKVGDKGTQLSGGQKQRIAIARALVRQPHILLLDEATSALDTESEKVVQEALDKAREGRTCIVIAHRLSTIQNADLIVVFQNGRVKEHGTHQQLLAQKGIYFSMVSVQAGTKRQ

For `C[C@@H](c1ncncc1F)[C@](O)(Cn1cncn1)c1ccc(F)cc1F` [Voriconazole, (2R,3S)-2-(2,4-difluorophenyl)-3-(5-fluoropyrimidin-4-yl)-1-(1H-1,2,4-triazol-1-yl)butan-2-ol], on P-gp, the “Inhibitor of P-gp” value was “not an inhibitor”. Regarding `OC(Cn1cncn1)(Cn1cncn1)c1ccc(F)cc1F` [Fluconazole, 2-(2,4-difluorophenyl)-1,3-bis(1H-1,2,4-triazol-1-yl)propan-2-ol], at P-gp, the “Inhibitor of P-gp” value is “not an inhibitor”. Besides, the “Strength as inhibitor of CYP3A4” value on CYP3A4 is listed as “moderate (“Moderate inhibitors” cause ≧2-fold but <5-fold (i.e., 100-399%) increase in AUC)”. For `CN/C(=N/CCSCc1nc[nH]c1C)NC#N` [Cimetidine, 2-cyano-1-methyl-3-(2-[(5-methyl-1H-imidazol-4-yl)methylthio]ethyl)guanidine], the “Inhibitor of P-gp” value at P-gp is “not an inhibitor”.
